From US4460587A, “5-Diazacycloalkyl imidazo[1,2-c][1,3]benzodiazepines” (Ciba-Geigy Corporation, priority 1982, dated 1984)

Experiments:
[1] = test system: learned conditioned avoidance behavior; assay: conditioned avoidance (lever press to avoid electric foot shock) in rats; assay type: in vivo; details: Rattus norvegicus, oral, read-out: oral dose that disrupts avoidance behavior, e.g. decreases avoidance responses
Protocol: (§1) Each lever press postpones the shock for 30 seconds. Whenever the animal fails to press the lever once within said period, brief (0.5 sec.) shocks are delivered at 15 second intervals until the animal again presses the lever. Under control conditions the animals press the lever at a moderately steady rate and seldom receive more than five or six shocks during a 25-minute (rats) and up to 4-hour experimental session. Said compounds are administered to the animals 30, 90, 210 minutes prior to the experimental session, and block the learned conditioned avoidance behavior, manifested by a decrease in avoidance responding with a marked increase in shocks taken by the animal. Both the avoidance responses and failures (shocks received) are recorded separately for evaluation.

[2] = test system: learned conditioned avoidance behavior; assay: conditioned avoidance (lever press to avoid electric foot shock) in monkeys; assay type: in vivo, squirrel monkeys; details: Primates, oral, read-out: oral dose that disrupts avoidance behavior, e.g. decreases avoidance responses
Protocol: as §1

CN1CCN(C2=Nc3ccccc3Cc3nccn32)CC1 [example 1, 5-(4-methyl-1-piperazinyl)-11H-imidazo[1,2-c][1,3]benzodiazepine]
minimal effective dose [1]: ≤ 50 mg/kg | minimal effective dose [2]: ≤ 50 mg/kg
